Results published in ChEMBL document CHEMBL5036301, “Heteroaryl ether analogues of an antileishmanial 7-substituted 2-nitroimidazooxazine lead afford attenuated hERG risk: In vitro and in vivo appraisal” (Eur J Med Chem, 2021).
Converted amounts (≈) assume the structure as drawn.

Columns and labels:
Leishmania donovani [1] = test: Antileishmanial activity against Leishmania donovani amastigotes infected in mouse J774A.1 cells incubated for 72 hrs by luciferase assay; format: functional, organism-based; conditions: J774.A1, 72 h
Leishmania infantum [2] = test: Antileishmanial activity against Leishmania infantum MHOM/MA(BE)/67 amastigotes infected in macrophages assessed as reduction in parasite burden by giemsa staining based microscopic analysis; format: functional, organism-based
Trypanosoma cruzi = test: Antitrypanosomal activity against Trypanosoma cruzi Tulahuen CL2 infected in human MRC-5 cells assessed as parasite growth; format: functional, organism-based; conditions: Tulahuen CL2, MRC5
MRC5 = test: Cytotoxicity against human MRC5 cells assessed as cell viability after 72 hrs by fluorimetric analysis; format: ADME, cell-based; conditions: MRC5, 72 h
[3] = Kinetic solubility of compound in water at pH7 by HPLC analysis; conditions: pH 7
[4] = Stability of compound in human liver microsomes assessed as percentage of parent compound remaining at 0.5 uM measured after 30 mins; format: ADME, Microsome; conditions: read-out: Stability
[5] = Stability of compound in CD-1 mouse liver microsomes assessed as percentage of parent compound remaining at 0.5 uM measured after 30 mins; format: ADME, Microsome; conditions: read-out: Stability
[6] = Stability of compound in hamster liver microsomes assessed as percentage of parent compound remaining at 0.5 uM measured after 30 mins; format: ADME, Cricetulus griseus, Microsome; conditions: chinese hamster, read-out: Stability
hERG (KCNH2) = hERG (KCNH2) (Homo sapiens, UniProt Q12809); test: Inhibition of human ERG expressed in HEK293 cells at 10 uM relative to control; format: cell-based; conditions: HEK293 cells expressing human ERG
[7] = Initial plasma concentration in mouse at 1 mg/kg, iv measured upto 24 hrs LC-MS/MS analysis
[8] = Clearance in mouse at 1 mg/kg, iv measured upto 24 hrs LC-MS/MS analysis; conditions: in vivo
[9] = Volume of distribution at steady state in mouse at 1 mg/kg, iv measured upto 24 hrs LC-MS/MS analysis; conditions: in vivo
[10] = Half life in mouse at 1 mg/kg, iv measured upto 24 hrs LC-MS/MS analysis; conditions: in vivo
[11] = AUClast in mouse at 1 mg/kg, iv measured upto 24 hrs LC-MS/MS analysis; conditions: in vivo
[12] = AUClast in mouse at 25 mg/kg, po measured upto 24 hrs LC-MS/MS analysis; conditions: in vivo
in vivo [13] = conditions: mouse, po, 25 mg/kg
in vivo [14] = conditions: mouse, po, 25 mg/kg; remark: listed apart in the source
in vivo [15] = conditions: mouse, po, 25 mg/kg; remark: listed apart in the source
Leishmania donovani [16] = test: Antileishmanial activity against Leishmania donovani amastigotes infected in BALB/C mouse assessed as reduction in parasite burden in liver tissue at 25 mg/kg, po administered once per day for 5 days relative to control; conditions: 120 h, read-out: INH
Leishmania donovani [17] = test: Antileishmanial activity against Leishmania donovani amastigotes infected in BALB/C mouse assessed as reduction in parasite burden in liver tissue at 3.13 mg/kg, po administered once per day for 5 days relative to control; format: functional; conditions: 120 h, time 5 day
Leishmania infantum [18] = test: Antileishmanial activity against Leishmania infantum amastigotes infected in golden hamster assessed as reduction in parasite load in liver tissue at 50 mg/kg, po administered once daily for 5 days relative to control; format: functional; conditions: 120 h, time 5 day
Leishmania infantum [19] = test: Antileishmanial activity against Leishmania infantum amastigotes infected in golden hamster assessed as reduction in parasite load in spleen tissue at 50 mg/kg, po administered once daily for 5 days relative to control; format: functional; conditions: 120 h, time 5 day
Leishmania infantum [20] = test: Antileishmanial activity against Leishmania infantum amastigotes infected in golden hamster assessed as reduction in parasite load in bone marrow tissue at 50 mg/kg, po administered once daily for 5 days relative to control; format: functional; conditions: 120 h, time 5 day
Leishmania infantum [21] = test: Antileishmanial activity against Leishmania infantum amastigotes infected in golden hamster assessed as reduction in parasite load in liver tissue at 25 mg/kg, po administered once daily for 5 days relative to control; conditions: in Mesocricetus auratus, 120 h, read-out: INH
Leishmania infantum [22] = test: Antileishmanial activity against Leishmania infantum amastigotes infected in golden hamster assessed as reduction in parasite load in bone marrow tissue at 25 mg/kg, po administered once daily for 5 days relative to control; conditions: in Mesocricetus auratus, 120 h, read-out: INH
Leishmania infantum [23] = test: animal or person; conditions: in Mesocricetus auratus, po, 120 h, read-out: INH
Description: Antileishmanial activity against Leishmania infantum amastigotes infected in golden hamster assessed as reduction in parasite load in liver tissue at 12.5 mg/kg, po administered once daily for 5 days relative to control

Leishmania infantum [24] = test: animal or person; conditions: in Mesocricetus auratus, po, 120 h, read-out: INH; remark: listed apart in the source
Description: Antileishmanial activity against Leishmania infantum amastigotes infected in golden hamster assessed as reduction in parasite load in spleen tissue at 12.5 mg/kg, po administered once daily for 5 days relative to control

Leishmania infantum [25] = test: animal or person; conditions: in Mesocricetus auratus, po, 120 h, read-out: INH; remark: listed apart in the source
Description: Antileishmanial activity against Leishmania infantum amastigotes infected in golden hamster assessed as reduction in parasite load in bone marrow tissue at 12.5 mg/kg, po administered once daily for 5 days relative to control

Leishmania donovani [26] = test: Antileishmanial activity against Leishmania donovani amastigotes infected in BALB/C mouse assessed as reduction in parasite burden in liver tissue at 12.5 mg/kg, po administered once per day for 5 days relative to control; format: functional; conditions: 120 h, time 5 day
Leishmania donovani [27] = test: Antileishmanial activity against Leishmania donovani amastigotes infected in BALB/C mouse assessed as reduction in parasite burden in liver tissue at 6.25 mg/kg, po administered once per day for 5 days relative to control; format: functional; conditions: 120 h, time 5 day
Leishmania infantum [28] = test: Antileishmanial activity against Leishmania infantum amastigotes infected in golden hamster assessed as reduction in parasite load in liver tissue at 40 mg/kg, po administered once daily for 5 days relative to control; format: functional; conditions: 120 h, time 5 day
Leishmania infantum [29] = test: Antileishmanial activity against Leishmania infantum amastigotes infected in golden hamster assessed as reduction in parasite load in spleen tissue at 40 mg/kg, po administered once daily for 5 days relative to control; format: functional; conditions: 120 h, time 5 day
Leishmania infantum [30] = test: Antileishmanial activity against Leishmania infantum amastigotes infected in golden hamster assessed as reduction in parasite load in bone marrow tissue at 40 mg/kg, po administered once daily for 5 days relative to control; format: functional; conditions: 120 h, time 5 day

Sequence of hERG (KCNH2) (Q12809 whole entry): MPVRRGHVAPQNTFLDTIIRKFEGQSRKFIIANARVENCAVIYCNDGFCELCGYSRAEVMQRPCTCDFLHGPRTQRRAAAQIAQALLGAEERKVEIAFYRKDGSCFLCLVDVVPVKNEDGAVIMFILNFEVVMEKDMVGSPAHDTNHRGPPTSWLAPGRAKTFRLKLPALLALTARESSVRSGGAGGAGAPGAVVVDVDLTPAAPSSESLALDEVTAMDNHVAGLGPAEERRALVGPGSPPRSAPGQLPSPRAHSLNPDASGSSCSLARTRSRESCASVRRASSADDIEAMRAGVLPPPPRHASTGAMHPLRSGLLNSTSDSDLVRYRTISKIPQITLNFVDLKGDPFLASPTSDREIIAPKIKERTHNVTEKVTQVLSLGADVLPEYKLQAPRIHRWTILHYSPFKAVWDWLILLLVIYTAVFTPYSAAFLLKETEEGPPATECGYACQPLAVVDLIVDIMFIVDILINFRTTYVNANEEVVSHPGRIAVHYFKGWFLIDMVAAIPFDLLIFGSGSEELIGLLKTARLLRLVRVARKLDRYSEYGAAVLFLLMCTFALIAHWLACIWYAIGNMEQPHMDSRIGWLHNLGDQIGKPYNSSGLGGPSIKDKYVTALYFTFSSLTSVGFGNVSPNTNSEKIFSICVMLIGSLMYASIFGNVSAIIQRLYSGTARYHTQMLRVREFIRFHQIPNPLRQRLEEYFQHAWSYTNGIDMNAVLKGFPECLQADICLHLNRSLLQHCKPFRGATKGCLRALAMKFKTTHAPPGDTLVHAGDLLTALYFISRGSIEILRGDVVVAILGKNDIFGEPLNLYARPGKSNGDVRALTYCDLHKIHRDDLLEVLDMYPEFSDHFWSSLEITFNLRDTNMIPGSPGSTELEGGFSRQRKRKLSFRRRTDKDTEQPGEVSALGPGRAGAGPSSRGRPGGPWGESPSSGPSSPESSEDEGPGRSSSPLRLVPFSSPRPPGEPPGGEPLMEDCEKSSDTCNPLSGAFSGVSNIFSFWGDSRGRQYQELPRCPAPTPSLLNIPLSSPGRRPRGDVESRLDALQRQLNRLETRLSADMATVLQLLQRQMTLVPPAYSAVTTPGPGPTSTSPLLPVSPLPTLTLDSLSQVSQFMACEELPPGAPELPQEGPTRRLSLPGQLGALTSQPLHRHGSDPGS

Structure (SMILES): O=[N+]([O-])c1cn2c(n1)OC(COc1ncc(Cl)cn1)CC2 (stereo not drawn)
- IC50 (Leishmania donovani [1]): 0.12 µM
- IC50 (Leishmania infantum [2]): > 64 µM
- IC50 (Trypanosoma cruzi): 39 µM
- IC50 (MRC5): > 64 µM
- solubility kinetic [3]: 6.6 µg/mL (≈ 21.2 µM)
- remaining at 0.5 h, 0.5 µM [4]: 99%
- remaining at 0.5 h, 0.5 µM [5]: 100%
- remaining at 0.5 h, 0.5 µM [6]: 90%
- inhibition at 10 µM (hERG (KCNH2)): 12%
- C0 at 24 h [7]: 1900 ng/mL
- clearance at 24 h [8]: 7.3 mL/min/kg
- Vd at 24 h [9]: 0.37 L/kg
- AUC at 24 h [10]: 580 ng·h/mL
- AUC(0-t) at 24 h [11]: 2070 ng·h/mL
- AUC(0-t) at 24 h [12]: 3830 ng·h/mL
- Cmax at 24 h (in vivo [13]): 760 ng/mL
- Tmax at 24 h (in vivo [14]): 2 h
- bioavailability at 24 h (in vivo [15]): 15%

Structure (SMILES): C[C@]1(COc2ccc(OC(F)(F)F)cc2)CCn2cc([N+](=O)[O-])nc2O1
- IC50 (Leishmania donovani [1]): 0.06 µM
- inhibition in vivo at 25 mg/kg (Leishmania donovani [16]): > 99%
- inhibition in vivo at 3.13 mg/kg (Leishmania donovani [17]): 51%
- inhibition in vivo at 50 mg/kg (Leishmania infantum [18]): 99.6%
- inhibition in vivo at 50 mg/kg (Leishmania infantum [19]): 98%
- inhibition in vivo at 50 mg/kg (Leishmania infantum [20]): 96.7%
- inhibition in vivo at 25 mg/kg (Leishmania infantum [21]): 93.6%
- inhibition in vivo at 25 mg/kg (Leishmania infantum [22]): 81.5%
- inhibition in vivo at 12.5 mg/kg (Leishmania infantum [23]): 67.8%
- inhibition in vivo at 12.5 mg/kg (Leishmania infantum [24]): 59.5%
- inhibition in vivo at 12.5 mg/kg (Leishmania infantum [25]): 42.5%

Structure (SMILES): C[C@]1(COc2ccc(OC(F)(F)F)cc2)Cn2cc([N+](=O)[O-])nc2O1
- inhibition in vivo at 12.5 mg/kg (Leishmania donovani [26]): > 99%
- inhibition in vivo at 6.25 mg/kg (Leishmania donovani [27]): > 99%

Structure (SMILES): CCCCCCCCCCCCCCCCOP(=O)([O-])OCC[N+](C)(C)C [MILTEFOSINE]
- inhibition in vivo at 40 mg/kg (Leishmania infantum [28]): 98.5%
- inhibition in vivo at 40 mg/kg (Leishmania infantum [29]): 99.7%
- inhibition in vivo at 40 mg/kg (Leishmania infantum [30]): 94.9%

Structure (SMILES): CC1(COc2ccc(OC(F)(F)F)cc2)CCn2cc([N+](=O)[O-])nc2O1 (stereo not drawn)
- inhibition in vivo at 12.5 mg/kg (Leishmania donovani [26]): > 99%
- inhibition in vivo at 50 mg/kg (Leishmania infantum [18]): 100%
- inhibition in vivo at 50 mg/kg (Leishmania infantum [19]): 99.7%
- inhibition in vivo at 50 mg/kg (Leishmania infantum [20]): 99.5%
